We go through two compounds from BindingDB's records for doi:10.1021/jm960793t (Suntory, 1997).

One test concerns the target T1, Cathepsin G (Homo sapiens, UniProt P08311).
T1 sequence (P08311 whole entry): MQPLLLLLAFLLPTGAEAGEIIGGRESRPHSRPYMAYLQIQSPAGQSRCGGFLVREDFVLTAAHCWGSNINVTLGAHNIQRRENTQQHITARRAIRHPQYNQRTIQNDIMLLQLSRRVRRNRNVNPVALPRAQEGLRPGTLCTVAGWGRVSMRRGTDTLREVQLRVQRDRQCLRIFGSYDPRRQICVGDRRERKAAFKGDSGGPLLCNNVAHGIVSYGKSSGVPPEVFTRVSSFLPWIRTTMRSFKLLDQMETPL
The test can be described thus: Inhibitory activity against human neutrophil cathepsin G.

Another test concerns the target T2, Chymase (Homo sapiens, UniProt P23946).
T2 sequence (P23946 whole entry): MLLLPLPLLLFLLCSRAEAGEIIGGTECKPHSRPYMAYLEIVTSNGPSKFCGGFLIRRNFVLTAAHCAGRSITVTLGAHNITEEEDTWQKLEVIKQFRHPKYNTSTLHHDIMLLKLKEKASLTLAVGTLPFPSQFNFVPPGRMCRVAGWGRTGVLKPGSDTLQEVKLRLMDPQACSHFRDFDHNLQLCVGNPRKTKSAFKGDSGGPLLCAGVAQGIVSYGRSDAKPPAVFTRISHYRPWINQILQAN
Nature of the test: Inhibitory activity against human heart chymase in vitro.

What is called IC50 is the concentration at which inhibition is half-maximal.

In the case of `O=C(OCn1c(O)cn(-c2ccccc2)c1=O)c1ccccc1` [Benzoic acid 2,5-dioxo-3-phenyl-imidazolidin-1-ylmethyl ester], the IC50 at Cathepsin G and against Chymase was over 100 µM each time.
The compound `O=c1n(S(=O)(=O)c2ccc(Cl)cc2)cc(O)n1-c1ccc(Cl)cc1` [1-(4-Chloro-benzenesulfonyl)-3-(4-chloro-phenyl)-imidazolidine-2,4-dione] displayed an IC50 on Chymase of over 100 µM.
